Laboratory results reported in EPA's CvTdb concentration-time database.

How the values were obtained:
Rat [1] = test: concentration in brain after dosing; conditions: 0.5 h; dosed: alpha-Thujone; 50 mg/kg; oral; Male; Harlan Sprague Dawley
Rat [2] = test: concentration in brain after dosing; conditions: 2 min; dosed: alpha-Thujone; 25 mg/kg; oral; Female; Harlan Sprague Dawley
Rat [3] = test: concentration in brain after dosing; conditions: 1.5 h; dosed: alpha-Thujone; 25 mg/kg; oral; Male; Harlan Sprague Dawley
Rat [4] = test: concentration in brain after dosing; conditions: 1.5 h; dosed: alpha-Thujone; 50 mg/kg; oral; Female; Harlan Sprague Dawley
Rat [5] = test: concentration in brain after dosing; conditions: 3 h; dosed: alpha-Thujone; 25 mg/kg; oral; Female; Harlan Sprague Dawley
Rat [6] = test: concentration in brain after dosing; conditions: 6 h; dosed: alpha-Thujone; 25 mg/kg; oral; Male; Harlan Sprague Dawley
Rat [7] = test: concentration in brain after dosing; conditions: 10 min; dosed: alpha-Thujone; 25 mg/kg; oral; Male; Harlan Sprague Dawley
Rat [8] = test: concentration in brain after dosing; conditions: 0.5 h; dosed: alpha-Thujone; 50 mg/kg; oral; Female; Harlan Sprague Dawley
Rat [9] = test: concentration in brain after dosing; conditions: 5 min; dosed: alpha-Thujone; 50 mg/kg; oral; Female; Harlan Sprague Dawley
Rat [10] = test: concentration in plasma after dosing; conditions: 2 min; dosed: alpha-Thujone; 25 mg/kg; oral; Female; Harlan Sprague Dawley
Rat [11] = test: concentration in plasma after dosing; conditions: 6 h; dosed: alpha-Thujone; 25 mg/kg; oral; Male; Harlan Sprague Dawley
Rat [12] = test: concentration in plasma after dosing; conditions: dosed: Pyridine, 25 mg/kg, oral, Male, F344
Rat [13] = test: concentration in plasma after dosing; conditions: dosed: Pyridine, 25 mg/kg, oral, Female, Harlan Sprague-Dawley
Rat [14] = test: concentration in plasma after dosing; conditions: dosed: Methyleugenol, 37 mg/kg, iv, Male, F344
Rat [15] = test: concentration in plasma after dosing; conditions: dosed: Methyleugenol, 37 mg/kg, oral, Male, F344/N
Rat [16] = test: concentration in plasma after dosing; conditions: 1.5 h; dosed: Primidone; 80 mg/kg; oral; Female; F344
Rat [17] = test: concentration in plasma after dosing; conditions: 0.5 h; dosed: Primidone; 130 mg/kg; oral; Female; F344
Rat [18] = test: concentration in plasma after dosing; conditions: 12 h; dosed: Primidone; 80 mg/kg; oral; Female; F344
Rat [19] = test: concentration in plasma after dosing; conditions: 22 h; dosed: Primidone; 130 mg/kg; oral; Female; F344
Rat [20] = test: concentration in plasma after dosing; conditions: 4 h; dosed: 2-Hydroxy-4-methoxybenzophenone; 500 mg/kg; oral; Male; F344
Rat [21] = test: concentration in plasma after dosing; conditions: dosed: 2-Hydroxy-4-methoxybenzophenone, 250 mg/kg, oral, Female, F344
Mouse [22] = test: concentration in plasma after dosing; conditions: 0.25 h; dosed: 2-Hydroxy-4-methoxybenzophenone; 250 mg/kg; oral; Female; B6C3F1
Mouse [23] = test: concentration in plasma after dosing; conditions: 2 h; dosed: 2-Hydroxy-4-methoxybenzophenone; 50 mg/kg; iv; Male; B6C3F1
Rat [24] = test: concentration in plasma after dosing; conditions: dosed: 2-Hydroxy-4-methoxybenzophenone, 500 mg/kg, oral, Male, F344
Mouse [25] = test: concentration in plasma after dosing; conditions: dosed: 2-Hydroxy-4-methoxybenzophenone, 100 mg/kg, oral, Male, B6C3F1
Mouse [26] = test: concentration in plasma after dosing; conditions: 2 h; dosed: 2-Hydroxy-4-methoxybenzophenone; 250 mg/kg; oral; Female; B6C3F1
Mouse [27] = test: concentration in plasma after dosing; conditions: dosed: 2,4-Dichlorophenoxyacetic acid, 2.0 mg/kg, oral, Male, B6C3F1
Rat [28] = test: concentration in liver after dosing; conditions: 3 h; dosed: Perfluorohexane-1-sulphonic acid – potassium salt; 16 mg/kg; oral; Female; F344
Rat [29] = test: concentration in liver after dosing; conditions: 6 h; dosed: Perfluorohexane-1-sulphonic acid – potassium salt; 16 mg/kg; oral; Female; F344
Rat [30] = test: concentration in liver after dosing; conditions: 192 h; dosed: Perfluorohexane-1-sulphonic acid – potassium salt; 16 mg/kg; oral; Female; Harlan Sprague Dawley
Rat [31] = test: concentration in liver after dosing; conditions: 528 h; dosed: Perfluorohexane-1-sulphonic acid – potassium salt; 16 mg/kg; oral; Female; F344
Rat [32] = test: concentration in liver after dosing; conditions: 24 h; dosed: Perfluorohexane-1-sulphonic acid – potassium salt; 16 mg/kg; oral; Female; Harlan Sprague Dawley
Rat [33] = test: concentration in liver after dosing; conditions: 12 h; dosed: Perfluorohexane-1-sulphonic acid – potassium salt; 16 mg/kg; oral; Female; F344
Rat [34] = test: concentration in plasma after dosing; conditions: dosed: Perfluorohexane-1-sulphonic acid – potassium salt, 4 mg/kg, oral, Male, F344
Rat [35] = test: concentration in kidney after dosing; conditions: 3 h; dosed: Perfluorohexane-1-sulphonic acid – potassium salt; 16 mg/kg; oral; Female; Harlan Sprague Dawley

CC(C)[C@]12CC(=O)[C@H](C)[C@H]1C2 [alpha-Thujone]
Conditions | concentration in brain [ng/g] | concentration in plasma [ng/mL]
Rat [1] | 5490 | –
Rat [2] | 36.5 | –
Rat [3] | 525 | –
Rat [4] | 1020 | –
Rat [5] | 556 | –
Rat [6] | 435 | –
Rat [7] | 731 | –
Rat [8] | 878 | –
Rat [9] | 3080 | –
Rat [10] | – | 10.6
Rat [11] | – | 83.5

c1ccncc1 [Pyridine]
concentration in plasma [ng/mL]
Conditions | 0.5 h | 1 h | 6 h | 8 h
Rat [12] | 15300 | – | 15100 | –
Rat [13] | – | 21100 | – | 15100

C=CCc1ccc(OC)c(OC)c1 [Methyleugenol]
concentration in plasma [ng/mL]
Conditions | 0.25 h | 1.5 h | 2 h | 5 min
Rat [14] | 9380 | 670 | – | –
Rat [15] | – | – | 41.7 | 191

CCC1(c2ccccc2)C(=O)NCNC1=O [Primidone]
Conditions | concentration in plasma [ng/mL]
Rat [16] | 70300
Rat [17] | 18800
Rat [18] | 15800
Rat [19] | 1700

O=C(c1ccccc1)c1ccc(O)cc1O [2,4-Dihydroxybenzophenone]
Conditions | concentration in plasma [ng/mL]
Mouse [22] | 437
Mouse [23] | 266
Mouse [26] | 190
Rat [20] | 181

concentration in plasma [ng/mL]
Conditions | 0.25 h | 2 h | 2.5 min | 3 h | 10 h | 10 min
Mouse [25] | 433 | 177 | 185 | 119 | – | 301
Rat [21] | – | – | – | 148 | – | 119
Rat [24] | – | – | – | – | 203 | 55.1

O=C(O)COc1ccc(Cl)cc1Cl [2,4-Dichlorophenoxyacetic acid]
Mouse [27]
Conditions | concentration in plasma [ng/mL]
0.25 h | 3740
0.5 h | 8570
2 h | 2400
2.5 min | 2790
3 h | 929
10 min | 4900

O=S(=O)([O-])C(F)(F)C(F)(F)C(F)(F)C(F)(F)C(F)(F)C(F)(F)F.[K+] [Perfluorohexane-1-sulphonic acid – potassium salt]
Conditions | concentration in kidney [ng/g] | concentration in liver [ng/g]
Rat [28] | – | 63900
Rat [29] | – | 80400
Rat [30] | – | 1660
Rat [31] | – | 20900
Rat [32] | – | 25700
Rat [33] | – | 75600
Rat [35] | 31500 | –

Rat [34]
Conditions | concentration in plasma [ng/mL]
0.25 h | 5490
12 h | 31800
528 h | 8940
